Where two headings read alike, the source gives them in different places. Marks after values point to notes of the source that are not given here.
How the values were obtained:
[1] = tested on: maximal electroshock seizure (hind-limb tonic extension); details: in vivo, cited from earlier work
[2] = tested on: kindled seizures (seizure score, after-discharge duration); details: for Effect in rat kindling model: Figure 1
[3] = tested on: sound-induced seizures; assay: animal or person; details: Mus musculus, ip, read-out: Audiogenic seizure ED50
[4] = tested on: chemically-induced forelimb clonic seizures; details: mouse, cited from earlier work
[5] = tested on: maximal electroshock seizure (hind-limb tonic extension); details: mouse
[6] = molecular target: rat Nav1.2 (Rattus norvegicus, UniProt P04775); assay: Voltage-gated Na+ channel whole-cell patch-clamp in CHL1610 cells; type: cell-based
Sequence of rat Nav1.2 (P04775 whole entry): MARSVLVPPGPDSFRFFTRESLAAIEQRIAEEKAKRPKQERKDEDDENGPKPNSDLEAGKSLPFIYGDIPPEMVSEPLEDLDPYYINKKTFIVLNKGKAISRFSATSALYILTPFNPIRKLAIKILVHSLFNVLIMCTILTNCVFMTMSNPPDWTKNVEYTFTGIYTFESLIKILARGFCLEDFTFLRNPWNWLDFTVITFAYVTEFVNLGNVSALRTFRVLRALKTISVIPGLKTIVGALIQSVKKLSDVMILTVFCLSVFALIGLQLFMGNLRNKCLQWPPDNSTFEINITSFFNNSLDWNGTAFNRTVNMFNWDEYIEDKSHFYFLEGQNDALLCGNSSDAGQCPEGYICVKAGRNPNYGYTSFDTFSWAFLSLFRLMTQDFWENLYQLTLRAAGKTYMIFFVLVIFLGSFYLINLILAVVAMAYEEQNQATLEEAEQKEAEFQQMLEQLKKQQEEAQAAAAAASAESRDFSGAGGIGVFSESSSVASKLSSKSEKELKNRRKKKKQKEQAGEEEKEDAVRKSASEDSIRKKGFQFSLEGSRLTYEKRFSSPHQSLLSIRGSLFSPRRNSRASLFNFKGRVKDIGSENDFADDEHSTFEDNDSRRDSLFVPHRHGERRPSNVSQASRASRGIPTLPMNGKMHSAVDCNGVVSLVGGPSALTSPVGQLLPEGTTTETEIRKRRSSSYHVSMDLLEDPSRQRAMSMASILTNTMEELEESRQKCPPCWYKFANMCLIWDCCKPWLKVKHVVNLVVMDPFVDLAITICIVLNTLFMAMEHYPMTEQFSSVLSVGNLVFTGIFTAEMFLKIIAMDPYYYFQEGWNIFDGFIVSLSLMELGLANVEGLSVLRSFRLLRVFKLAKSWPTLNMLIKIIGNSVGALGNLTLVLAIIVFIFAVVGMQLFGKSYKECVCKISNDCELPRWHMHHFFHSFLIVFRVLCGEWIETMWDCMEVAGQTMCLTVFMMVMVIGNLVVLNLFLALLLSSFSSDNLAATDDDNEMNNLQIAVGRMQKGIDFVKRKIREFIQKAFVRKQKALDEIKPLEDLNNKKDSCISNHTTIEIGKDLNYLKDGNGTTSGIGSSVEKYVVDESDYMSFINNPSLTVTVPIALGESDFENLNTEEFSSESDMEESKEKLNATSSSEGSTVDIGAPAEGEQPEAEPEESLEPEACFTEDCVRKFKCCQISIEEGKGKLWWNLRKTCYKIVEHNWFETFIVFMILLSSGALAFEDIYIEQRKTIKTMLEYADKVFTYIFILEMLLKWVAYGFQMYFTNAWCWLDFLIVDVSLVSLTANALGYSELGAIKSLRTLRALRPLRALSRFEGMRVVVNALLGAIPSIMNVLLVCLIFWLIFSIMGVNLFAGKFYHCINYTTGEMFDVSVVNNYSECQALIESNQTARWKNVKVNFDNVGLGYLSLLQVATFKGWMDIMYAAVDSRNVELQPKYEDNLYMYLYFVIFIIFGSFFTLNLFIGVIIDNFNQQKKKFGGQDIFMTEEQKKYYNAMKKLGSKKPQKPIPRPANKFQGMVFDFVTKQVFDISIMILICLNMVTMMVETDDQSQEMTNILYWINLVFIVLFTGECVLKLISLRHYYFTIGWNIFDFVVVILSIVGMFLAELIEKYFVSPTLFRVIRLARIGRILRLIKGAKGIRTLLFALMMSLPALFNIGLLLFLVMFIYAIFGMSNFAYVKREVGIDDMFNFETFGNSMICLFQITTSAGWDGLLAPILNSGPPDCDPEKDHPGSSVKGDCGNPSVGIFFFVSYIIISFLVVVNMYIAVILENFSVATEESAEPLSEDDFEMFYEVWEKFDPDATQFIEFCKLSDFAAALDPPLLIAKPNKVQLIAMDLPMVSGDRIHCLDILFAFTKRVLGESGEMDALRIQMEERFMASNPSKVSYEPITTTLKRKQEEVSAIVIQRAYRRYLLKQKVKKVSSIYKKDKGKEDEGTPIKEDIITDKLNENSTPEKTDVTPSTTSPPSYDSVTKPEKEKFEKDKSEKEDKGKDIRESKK

[7] = tested on: kindled seizures (seizure score, after-discharge duration); details: cited from earlier work
[8] = tested on: maximal electroshock seizure (hind-limb tonic extension); details: at 2 h (time of peak effect); cited from earlier work
[9] = molecular target: kappa-opioid receptor (Homo sapiens, UniProt P41145); assay: Cerep receptor-binding panel: kappa opioid; details: read-out: Inhibition, kappa-opioid receptor
Sequence of kappa-opioid receptor (P41145 whole entry): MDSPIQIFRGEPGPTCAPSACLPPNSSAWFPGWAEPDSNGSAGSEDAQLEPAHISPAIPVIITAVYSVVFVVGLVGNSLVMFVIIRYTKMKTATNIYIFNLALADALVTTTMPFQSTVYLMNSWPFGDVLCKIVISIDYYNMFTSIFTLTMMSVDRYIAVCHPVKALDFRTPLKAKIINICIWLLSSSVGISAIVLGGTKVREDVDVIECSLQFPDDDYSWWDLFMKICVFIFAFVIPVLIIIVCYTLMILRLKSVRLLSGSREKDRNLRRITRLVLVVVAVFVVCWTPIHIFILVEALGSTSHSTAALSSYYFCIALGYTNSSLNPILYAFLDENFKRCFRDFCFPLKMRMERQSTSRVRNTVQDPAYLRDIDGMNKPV

[10] = molecular target: rat KCNQ2 (Rattus norvegicus, UniProt O88943); assay: KCNQ2 whole-cell patch-clamp, M-current protocol; type: cell-based
Sequence of rat KCNQ2 (O88943 whole entry): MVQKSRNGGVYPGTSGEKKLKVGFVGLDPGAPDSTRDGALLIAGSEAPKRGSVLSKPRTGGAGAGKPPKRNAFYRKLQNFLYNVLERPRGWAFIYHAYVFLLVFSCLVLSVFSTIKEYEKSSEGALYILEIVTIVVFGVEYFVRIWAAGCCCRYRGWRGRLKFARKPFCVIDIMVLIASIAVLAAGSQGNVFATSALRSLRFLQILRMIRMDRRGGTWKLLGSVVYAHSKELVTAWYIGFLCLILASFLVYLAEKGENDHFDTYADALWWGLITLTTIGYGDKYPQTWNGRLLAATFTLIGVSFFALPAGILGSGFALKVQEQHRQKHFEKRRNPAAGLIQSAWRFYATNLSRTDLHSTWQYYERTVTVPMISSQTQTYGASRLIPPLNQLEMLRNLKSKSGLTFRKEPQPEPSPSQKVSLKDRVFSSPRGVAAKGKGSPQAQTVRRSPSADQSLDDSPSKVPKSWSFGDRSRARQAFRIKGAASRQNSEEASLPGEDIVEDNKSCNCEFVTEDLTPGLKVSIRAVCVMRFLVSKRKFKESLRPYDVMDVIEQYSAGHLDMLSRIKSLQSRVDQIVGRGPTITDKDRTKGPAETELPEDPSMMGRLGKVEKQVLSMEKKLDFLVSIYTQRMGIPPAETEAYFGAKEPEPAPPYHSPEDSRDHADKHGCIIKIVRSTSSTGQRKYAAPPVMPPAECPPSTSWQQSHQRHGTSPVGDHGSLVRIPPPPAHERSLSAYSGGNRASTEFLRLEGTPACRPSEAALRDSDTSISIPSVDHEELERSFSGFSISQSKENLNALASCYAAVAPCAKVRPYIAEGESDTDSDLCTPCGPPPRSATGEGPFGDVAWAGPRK

## CC1(C)O[C@@H]2[C@@H](CO[C@@]3(COS(N)(=O)=O)OC(C)(C)O[C@@H]23)O1 [compound 1, topiramate]
[1]
  Oral mouse MES ED50: 43.8 ^f mg/kg
[1]; mouse
  MES, po, effect (animals responding / animals tested): 0.5, 2/5; 2, 4/5 ^l
[2]; maximally effective dose
  Rats with complete protection: one out of eight
  Effect in rat kindling model: not effective
[3]
  ED50: 4.2 mg/kg

## CCCC(CCC)C(=O)O [valproic acid]
[2]; maximally effective dose
  Effect in rat kindling model: significantly suppressed seizure activity
[2]; rat kindling
  Doses giving protection similar to 3 (range of neurotoxic effects): > 300 mg/kg
[4]
  ED50 in chemically-induced seizures (comparators): > 200 mg/kg

## NS(=O)(=O)NC[C@H]1COc2c(Cl)cccc2O1 [10a]
[5]; 100 mg/kg po, 0.5 h
  MES, po, effect (animals responding / animals tested): 0/5
[5]; 100 mg/kg po, 2 h
  MES, po, effect (animals responding / animals tested): 1/5

## CC[C@@H](C(N)=O)N1CCCC1=O [levetiracetam]
[4]
  ED50 in chemically-induced seizures (comparators): > 540 mg/kg

## CN(C)S(=O)(=O)NCC1COc2ccccc2O1 (centres unmarked) [compound 7, N-((2,3-Dihydrobenzo[1,4]dioxin-2-yl)methyl)-N’,N’-dimethylsulfamide]
[5]; 300 mg/kg po, 0.5 h
  MES, po, effect (animals responding / animals tested): 4/5
[5]; 300 mg/kg po, 2 h
  MES, po, effect (animals responding / animals tested): 0/5

## O=C1NC(=O)C(c2ccccc2)(c2ccccc2)N1 [phenytoin]
[2]; maximally effective dose
  Effect in rat kindling model: significantly suppressed seizure activity

## NCC1(CC(=O)O)CCCCC1 [gabapentin]
[6]; up to 300 μM
  Effect on Na+ channel activity: no effect

## NS(=O)(=O)NCC1Oc2ccc(Cl)cc2O1 (centres unmarked) [11b]
[5]; 100 mg/kg po, 0.5 h
  MES, po, effect (animals responding / animals tested): 0.5, 0/5; 2, 0/5
[5]; 100 mg/kg po, 2 h
  MES, po, effect (animals responding / animals tested): 0.5, 0/5; 2, 0/5

## NS(=O)(=O)NCc1ccccc1 [PhCH2NHSO2NH2]
[1]; 100 mg/kg
  Mouse MES effect (animals protected / tested): 3/3
[1]; 300 mg/kg
  Mouse MES effect (animals protected / tested): 3/3

## NS(=O)(=O)NCc1csc2ccccc12 [compound 3, N-((benzo[b]thien-3-yl)methyl)sulfamide]
[1]
  Oral mouse MES ED50: 119 ^c mg/kg
[1]; mouse, 100 mg/kg
  MES, po, effect (animals responding / animals tested): 0.5, 1/5; 2, 3/5
[7]; maximally effective dose, time of peak effect
  Rats with complete absence of seizure activity: six out of eight
[7]; rat, i.p., p < 0.01
  Reduction of after-discharge duration: 64%
[7]; rat, i.p., p = 0.0001
  Rats with seizure score reduced from 5 to 0: six out of eight
[7]; rat, i.p., sustained at 1 h
  Time of peak activity: 15 min
[4]; ip, […]
  ED50 vs s.c. Bic-induced forelimb clonic seizures: 156 mg/kg
  ED50 vs s.c. PTZ-induced forelimb clonic seizures: 161 mg/kg
  ED50 vs s.c. Pic-induced forelimb clonic seizures: 106 mg/kg
[8]
  Rat MES oral ED50: 34 mg/kg

## NS(=O)(=O)NC[C@H]1COc2cc(Cl)ccc2O1 [compound 4, (2S)-(–)-N-((6-Chloro-2,3-dihydrobenzo[1,4]dioxin-2-yl)methyl)sulfamide]
[9]
  inhibition at 10 µM: 45%
[2]; rat, i.p., p = 0.07
  Effect on after-discharge duration: no statistically significant effect
[10]; 300 μM, −50 mV, N = 5 cells
  Increase in KCNQ2 current: 2.4 fold
  Increase in decay kinetics: 2 fold
[10]; 750 μM
  Increase in KCNQ2 current: 4 fold
[6]; at −107 mV
  Nav1.2 inhibition at −107 mV: virtually no inhibition

## COc1cccc2c1O[C@@H](CNS(N)(=O)=O)CO2 [10g]
[5]; 100 mg/kg po, 0.5 h
  MES, po, effect (animals responding / animals tested): 0.5, 0/5; 2, 0/5 ^j
[5]; 100 mg/kg po, 2 h
  MES, po, effect (animals responding / animals tested): 0.5, 0/5; 2, 0/5 ^j

## NC(=O)N1c2ccccc2C=Cc2ccccc21 [carbamazepine]
[2]; maximally effective dose
  Effect in rat kindling model: significantly suppressed seizure activity
[2]; rat kindling
  Doses giving protection similar to 4 (range of neurotoxic effects): > 26 mg/kg

## CCC1(C)CC(=O)NC1=O (centres unmarked) [ethosuximide]
[2]; maximally effective dose
  Effect in rat kindling model: not effective

## CCCCNS(N)(=O)=O [BuNHSO2NH2]
[1]; mouse
  Activity in the MES test: not active

Reference: paper PMC4004761 (Journal of medicinal chemistry, 2013)
